{"source": "patent US12161741B2", "about": "“Skin gel preparation for external use” (Shiseido Company, Ltd., priority 2018, dated 2024)", "experiment": "Solubility of the di-chain cationic surfactant (distearyldimonium chloride) in oils", "settings": "for Evaluation Result (state of the solution of distearyldimonium chloride in the oil): 1 g distearyldimonium chloride mixed and heated to dissolve in 100 g of oil, at rest 24 hours at ambient temperature; for Dissolution of the di-chain cationic surfactant in the oil (text summary of Table 1): 1 g in 100 g oil, 24 hours at ambient temperature", "data": [{"compound": "CC(C)CCCCCCCCCCCCCCCOC(=O)CC(O)C(=O)OCCCCCCCCCCCCCCCC(C)C", "note": "(centres unmarked) [Diisostearyl malate]", "values": [{"measurement": "Evaluation Result (state of the solution of distearyldimonium chloride in the oil)", "value": "○"}, {"measurement": "Dissolution of the di-chain cationic surfactant in the oil (text summary of Table 1)", "value": "homogeneously dissolved"}]}, {"compound": "CCCCC(CC)COCC(O)CO", "note": "(centres unmarked) [Ethylhexylglycerin]", "values": [{"measurement": "Evaluation Result (state of the solution of distearyldimonium chloride in the oil)", "value": "○"}, {"measurement": "Dissolution of the di-chain cationic surfactant in the oil (text summary of Table 1)", "value": "homogeneously dissolved"}]}, {"compound": "CC(C)CCCCCCCCCCCCCCCO", "note": "[Isostearyl alcohol]", "values": [{"measurement": "Dissolution of the di-chain cationic surfactant in the oil (text summary of Table 1)", "value": "homogeneously dissolved"}]}, {"compound": "CCCCCCCCCCC(CO)CCCCCCCC", "note": "(centres unmarked) [Octyldodecanol]", "values": [{"measurement": "Dissolution of the di-chain cationic surfactant in the oil (text summary of Table 1)", "value": "homogeneously dissolved"}]}, {"compound": "Glyceryl diisostearate", "values": [{"measurement": "Evaluation Result (state of the solution of distearyldimonium chloride in the oil)", "value": "○"}, {"measurement": "Dissolution of the di-chain cationic surfactant in the oil (text summary of Table 1)", "value": "homogeneously dissolved"}]}]}
